Where a name gives a salt, the structure may show the parent alone.

The test system of one test is human fibroblasts. The test can be described thus: Cell proliferation of fibroblasts. The format is cell-based. The note with it: Fibroblast, 72 h, read-out: IC50 cell proliferation of fibroblasts. How it is done: Fibroblasts at 70-90% confluency are trypsinized, replated at 600 cells/well in media in 96-well plates and allowed to attachment overnight. […] Each drug concentration is tested in triplicate wells. Plates containing fibroblasts and drug substance are incubated at 37° C. for 72 hours.
To terminate the assay, the media is removed by gentle aspiration. A 1/400 dilution of CYQUANT 400×GR™ dye indicator (Molecular Probes; Eugene, Oreg.) is added to 1× Cell Lysis buffer, and 200 μL of the mixture is added to the wells of the plate. Plates are incubated at room temperature, protected from light for 3-5 minutes.
Turning to `NCCCNCCCCNCCCN` [Spermine tetrahydrochloride], the IC50 was in the range of 600 to 1200 nM.

The same test, now with this note: Fibroblast, 72 hours, CYQUANT, read-out: IC50 cell proliferation of fibroblasts.
With `O=c1[nH]cnc2c1ncn2[C@@H]1O[C@H](CO)[C@@H](O)[C@H]1O` [INO-1001], the IC50 lay in the range of 1200 to 10000 nM.
For the compound `COC1=C(OC)C(=O)C(CCCCCCCCCCO)=C(C)C1=O` [Idebenone], the IC50 lay in the range of 1200 to 10000 nM.
For `c1c[nH]cn1` [Imidazole], the IC50 is 1200 to 10000 nM.
With `CCc1c2c(nc3ccc(OC(=O)N4CCC(N5CCCCC5)CC4)cc13)-c1cc3c(c(=O)n1C2)COC(=O)[C@]3(O)CC` [Irinotecan Hydrochloride Trihydrate], the IC50 lay within 600 to 1200 nM.
For the compound `Nc1nc(N)nc(-c2cc(Cl)ccc2Cl)n1` [Irsogladine], the IC50 was in the range of 1200 to 10000 nM.
For `CO[C@@H]1[C@@H](O[C@@H]2O[C@H](C)[C@@H](O[C@H]3C[C@@](C)(O)[C@@H](OC(=O)CC(C)C)[C@H](C)O3)[C@H](N(C)C)[C@H]2O)[C@@H](CC=O)C[C@@H](C)[C@@H](O)/C=C/C=C/C[C@@H](C)OC(=O)C[C@H]1OC(C)=O` [Josamycin], the IC50 was 0.1 to 10 nM.
Regarding `O=c1c(O)c(-c2ccc(O)cc2)oc2cc(O)cc(O)c12` [Kaempferol], the IC50 is 600 to 1200 nM.
For the compound `CN(C)C[C@@H]1CCn2cc(c3ccccc32)C2=C(C(=O)NC2=O)c2cn(c3ccccc23)CCO1` [LY333531, Ruboxistaurin], the IC50 is 1200 to 10000 nM.
The same measure, in the same setting: then `CCCCc1nc(Cl)c(CO)n1Cc1ccc(-c2ccccc2-c2nn[nH]n2)cc1` [Losartan potassium], with 1200 to 10000 nM; and `NC(Cc1ccc(N(CCCl)CCCl)cc1)C(=O)O` (centres unmarked) [Melphalan], with 1200 to 10000 nM; and `CCC(=O)O[C@@H]1CC(=O)O[C@H](C)C/C=C/C=C/[C@H](O)[C@H](C)C[C@H](CC=O)[C@H](O[C@@H]2O[C@H](C)[C@@H](O[C@H]3C[C@@](C)(O)[C@@H](OC(=O)CC)[C@H](C)O3)[C@H](N(C)C)[C@H]2O)[C@H]1OC` [Midecamycin, Leucomycin V 3,4B-dipropionate], with 1200 to 10000 nM.
For the compound `O[C@@H]([C@H](O)[C@H](O)CBr)[C@H](O)CBr` [Mitobronitol], the IC50 lay in the range of 100 to 600 nM.
Turning to `NC(=O)c1ncn([C@@H]2O[C@H](CO)[C@@H](O)[C@H]2O)c1O` [Mizoribine], the IC50 lay in the range of 10 to 100 nM.
With `O=c1c(O)c(-c2cc(O)c(O)c(O)c2)oc2cc(O)cc(O)c12` [Myricetin], the IC50 was in the range of 600 to 1200 nM.
Turning to `CS(=O)(=O)Nc1ccc([N+](=O)[O-])cc1OC1CCCCC1` [NS-398], the IC50 lay within 1200 to 10000 nM.
Consider `CNCCC=C1c2ccccc2CCc2ccccc21` [Nortriptyline Hydrochloride], for which the IC50 was 0.1 to 10 nM.
Regarding `CN(C)[C@@H]1C(O)=C(C(N)=O)C(=O)[C@@]2(O)C(O)=C3C(=O)c4c(O)cccc4[C@@](C)(O)[C@H]3[C@H](O)[C@@H]12` [Oxytetracycline hydrochloride], the IC50 lay in the range of 100 to 600 nM.
For the compound `NCCC(O)(P(=O)(O)O)P(=O)(O)O` [Pamidronate disodium], the IC50 was 100 to 600 nM.
Consider `OC1(c2ccc(Cl)c(C(F)(F)F)c2)CCN(CCCC(c2ccc(F)cc2)c2ccc(F)cc2)CC1` [Penfluridol], for which the IC50 was 600 to 1200 nM.
On to `N=C(N)c1ccc(OCCCCCOc2ccc(C(=N)N)cc2)cc1` [Pentamidine], for which the IC50 was 600 to 1200 nM.
In the case of `C1CCNCC1` [Piperidine], the IC50 was 1200 to 10000 nM.
As for `O=C(CCBr)N1CCN(C(=O)CCBr)CC1` [Pipobroman, N,N-Bis(3-bromopropionyl)piperazine], the IC50 is 1200 to 10000 nM.
As for `Cc1ccc(=O)n(-c2ccccc2)c1` [Pirfenidone], the IC50 lay within 10 to 100 nM.
Regarding `O=C(O)C[C@H](O)C[C@H](O)/C=C/c1c(C2CC2)nc2ccccc2c1-c1ccc(F)cc1` [Pitavastatin], the IC50 fell in the range of 100 to 600 nM.
Consider `CC[C@H](C)C(=O)O[C@H]1C[C@H](O)C=C2C=C[C@H](C)[C@H](CC[C@@H](O)C[C@@H](O)CC(=O)O)[C@H]21` [Pravastatin], for which the IC50 was in the range of 1200 to 10000 nM.
Turning to `O=c1c(O)c(-c2ccc(O)c(O)c2)oc2cc(O)cc(O)c12` [Quercetin dihydrate], the IC50 lay within 100 to 600 nM.
For the compound `C#C[C@]1(O)CC[C@H]2[C@@H]3CCc4cc(OC5CCCC5)ccc4[C@H]3CC[C@@]21C` [Quinestrol, 17a-Ethynylestradiot 3-cyclopentyl ether], the IC50 was 1200 to 10000 nM.
`C[C@@H]1C[C@H]2O[C@@H]2/C=C\C=C\C(=O)Cc2c(Cl)c(O)cc(O)c2C(=O)O1` [Radicicol]: the IC50 lay in the range of 10 to 100 nM.
Regarding `Cc1nc2ccc(CN(C)c3ccc(C(=O)N[C@@H](CCC(=O)O)C(=O)O)s3)cc2c(=O)[nH]1` [Raltitrexed], the IC50 is 10 to 100 nM.
For `COc1ccc(C2CNC(=O)C2)cc1OC1CCCC1` (centres unmarked) [Rolipram], the IC50 was 100 to 600 nM.
`CC(C)c1nc(N(C)S(C)(=O)=O)nc(-c2ccc(F)cc2)c1/C=C/[C@@H](O)C[C@@H](O)CC(=O)O` [Rosuvastatin]: the IC50 was in the range of 1200 to 10000 nM.
The same measure, in the same setting: as for `CC(=O)c1c(O)c(C)c(O)c(Cc2c(O)c3c(c(C(=O)/C=C/c4ccccc4)c2O)OC(C)(C)C=C3)c1O` [Rottlerin], the figure is 1200 to 10000 nM; as for `CC(=O)OCC(=O)NCCCOc1cccc(CN2CCCCC2)c1` [Roxatidine acetate], 600 to 1200 nM; as for `Nc1nccc(-c2c(-c3ccc(F)cc3)ncn2C2CCNCC2)n1` [SB 220025], 1200 to 10000 nM.
`COc1cccc(-c2ccc(NC(=O)C3=C(C(=O)O)CCC3)c(F)c2)c1` [SC12267]: the IC50 lay within 1200 to 10000 nM.
Consider `Nc1nc2c(cnn2CCc2ccccc2)c2nc(-c3ccco3)nn12` [SCH-58261], for which the IC50 was 1200 to 10000 nM.
For the compound `CCCCCCCCCCCCCCC[C@H](O)[C@@H](N)CO` [Safingol, L-threo-Dihydrosphingosine], the IC50 lay within 600 to 1200 nM.
In the case of `O=C(/C=C/c1ccccc1)NC(NC(=S)Nc1cccc2cccnc12)C(Cl)(Cl)Cl` (centres unmarked) [Salubrinal], the IC50 is 1200 to 10000 nM.
Consider `CCCc1nn(C)c2c(=O)[nH]c(-c3cc(S(=O)(=O)N4CCN(C)CC4)ccc3OCC)nc12` [Sildenafil Citrate], for which the IC50 fell in the range of 1200 to 10000 nM.
Regarding `NCCCCNCCCN` [Spermidine trihydrochloride], the IC50 lay in the range of 1200 to 10000 nM.
On to `Cc1ccnc(NS(=O)(=O)c2ccc(N)cc2)n1` [Sulfamerazine], for which the IC50 fell in the range of 1200 to 10000 nM.
In the case of `COc1cc([C@@H]2c3cc4c(cc3[C@@H](O[C@@H]3O[C@@H]5CO[C@@H](c6cccs6)O[C@H]5[C@H](O)[C@H]3O)[C@H]3COC(=O)[C@H]23)OCO4)cc(OC)c1O` [Teniposide], the IC50 lay within 10 to 100 nM.
For the compound `CN(C/C=C/C#CC(C)(C)C)Cc1cccc2ccccc12` [Terbinafine], the IC50 lay within 10 to 100 nM.
Same read-out and setting: then `C/C=C(/C)C(=O)O[C@H]1C(C)=C2[C@H]([C@@H]1OC(=O)CCCCCCC)[C@@](C)(OC(C)=O)C[C@H](OC(=O)CCC)[C@@]1(O)[C@H]2OC(=O)[C@@]1(C)O` [Thapsigargin], with 0.1 to 10 nM.
In the case of `Cn1c(=O)c2[nH]cnc2n(C)c1=O` [Theophylline], the IC50 fell in the range of 0.1 to 10 nM.
For the compound `Cc1cccc(Nc2ccncc2S(=O)(=O)NC(=O)NC(C)C)c1` [Torasemide], the IC50 was in the range of 10 to 100 nM.
On to `CC(=O)Oc1cc(C(F)(F)F)ccc1C(=O)O` [Triflusal], for which the IC50 lay in the range of 10 to 100 nM.
Take `CC(C)[C@]12O[C@H]1[C@@H]1O[C@]13[C@]1(O[C@H]1C[C@H]1C4=C(CC[C@@]13C)C(=O)OC4)[C@@H]2O` [Triptolide]: the IC50 lay in the range of 0.1 to 10 nM.
Consider `Oc1ccnc(O)n1` [Uracil, 2,4-Dihydroxypyrimidine], for which the IC50 lay in the range of 10 to 100 nM.
With `CC[C@]12CCCN3CCc4c(n(c5ccccc45)[C@@](O)(C(=O)OC)C1)[C@@H]32` [Vincamine], the IC50 is 0.1 to 10 nM.
Same read-out and setting: then `CC(=O)CC(c1ccccc1)c1c(O)c2ccccc2oc1=O` (centres unmarked) [Warfarin, 3-(a-Acetonylbenzyl)-4-hydroxycoumarin sodium salt], with 0.1 to 10 nM; and `COc1cc(O)c2c(c1)oc(=O)c1c3cc(O)c(O)cc3oc21` [Wedelolactone], with 1200 to 10000 nM; and `CO[C@H]1C[C@@H]2CC[C@@H](C)[C@@](O)(O2)C(=O)C(=O)N2CCCC[C@H]2C(=O)O[C@H]([C@H](C)C[C@@H]2CC[C@H](n3cnnn3)[C@H](OC)C2)CC(=O)[C@H](C)/C=C(\C)[C@@H](O)[C@@H](OC)C(=O)[C@H](C)C[C@H](C)/C=C/C=C/C=C/1C` [Zotarolimus], with 0.1 to 10 nM.

In the next test the test system is Smooth muscle cells. The test can be described thus: Proliferation of smooth muscle cells. The note with it: 72 hours, CYQUANT; read-out: IC50 proliferation of smooth muscle cells. The format is cell-based. How it is done: Smooth muscle cells at 70-90% confluency were trypsinized, replated at 600 cells/well in media in 96-well plates and allowed to attachment overnight. Paclitaxel was prepared in DMSO at a concentration of 10^−2 M and diluted 10-fold to give a range of stock concentrations (10^−8 M to 10^−2 M). […] Each drug concentration was tested in triplicate wells. Plates containing cells and paclitaxel were incubated at 37° C. for 72 hours.
To terminate the assay, the media was removed by gentle aspiration A 1/400 dilution of CYQUANT 400×GR dye indicator (Molecular Probes; Eugene, Oreg.) was added to 1× Cell Lysis buffer, and 200 μL of the mixture was added to the wells of the plate. Plates were incubated at room temperature, protected from light for 3-5 minutes.
As for `Nc1nc(Cl)nc2c1ncn2[C@H]1C[C@H](O)[C@@H](CO)O1` [cladribine, 2-Chloro-2-deoxyadenosine], the IC50 stood at 137 nM.
As to `C=C1[C@@H](C)[C@H]2[C@H](Cc3ccccc3)NC(=O)[C@]23OC(=O)/C=C/C(=O)CCC[C@@H](C)C/C=C/[C@H]3[C@@H]1O` [cytochalasin A], the IC50 came to 221 nM.
As to `CC(=O)[C@]1(O)Cc2c(O)c3c(c(O)c2[C@@H](O[C@H]2C[C@H](N)[C@H](O)[C@H](C)O2)C1)C(=O)c1ccccc1C3=O` [idarubicin], the IC50 came out at 38 nM.
Same read-out and setting: as for `CCC(C)n1ncn(-c2ccc(N3CCN(c4ccc(OCC5COC(Cn6cncn6)(c6ccc(Cl)cc6Cl)O5)cc4)CC3)cc2)c1=O` (centres unmarked) [itraconazole], the figure is 795 nM.
With `CC[C@H](C)C(=O)O[C@H]1C[C@@H](C)C=C2C=C[C@H](C)[C@H](CC[C@@H]3C[C@@H](O)CC(=O)O3)[C@H]21` [lovastatin], the IC50 was determined as 978 nM.

Values taken from patent US20090226500A1, “SUTURES AND ANTI-SCARRING AGENTS” (Angiotech Pharmaceuticals, Inc, priority 2006, published 2009).
